Laboratory results as given in patent publication US9908886B2 (Agency for Science, Technology and Research, priority 2012, dated 2018).

Legend:
MNK1 = MNK1 (Homo sapiens, UniProt Q9BUB5); test: In vitro MNK kinase assay (Caliper LabChip mobility shift); format: biochemical; settings: enzymatic, 1.2 mM ATP; read-out: IC50 Mnk1
MNK2 = MNK2 (Homo sapiens (Human), UniProt Q9HBH9); test: as above; format: biochemical; settings: enzymatic, 250 μM ATP; read-out: IC50 Mnk2
Chain of MNK2 (Q9HBH9 84-388): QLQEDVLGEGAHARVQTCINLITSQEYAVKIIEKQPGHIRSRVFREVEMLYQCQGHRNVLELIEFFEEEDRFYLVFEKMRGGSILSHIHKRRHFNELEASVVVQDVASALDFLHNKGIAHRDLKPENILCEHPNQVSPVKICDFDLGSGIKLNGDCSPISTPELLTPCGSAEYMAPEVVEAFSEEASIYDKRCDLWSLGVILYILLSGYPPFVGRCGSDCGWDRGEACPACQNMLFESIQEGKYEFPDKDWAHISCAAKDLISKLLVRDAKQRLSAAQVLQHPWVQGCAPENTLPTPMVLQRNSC

**Q.** What does the source list for `N#Cc1ccc(-c2cnc3ccc(-c4ccc(C(=O)N5CCNCC5)cc4)nn23)cc1` [Example 65, 4-(6-(4-(piperazine-1-carbonyl)phenyl)imidazo[1,2-b]pyridazin-3-yl)benzonitrile]?
**A.** IC50 (MNK1): < 100 nM; IC50 (MNK2): < 100 nM

**Q.** `CCC1(NC(C)=O)CCN(C(=O)c2ccc(-c3ccc4ncc(-c5ccc(C#N)cc5)n4n3)cc2)CC1` [Example 66, N-(1-(4-(3-(4-cyanophenyl)imidazo[1,2-b]pyridazin-6-yl)benzoyl)-4-ethylpiperidin-4-yl)acetamide] was tested. Which IC50 (MNK1) did it give?
**A.** Its IC50 is < 100 nM.

**Q.** What about the IC50 (MNK2) of the same molecule?
**A.** The IC50 was < 100 nM.

**Q.** Which IC50 (MNK1) does the source give for `N#Cc1ccc(-c2cnc3ccc(-c4ccc(C(=O)N5CCNC(=O)C5)cc4)nn23)cc1` [Example 68, 4-(6-(4-(3-oxopiperazine-1-carbonyl)phenyl)imidazo[1,2-b]pyridazin-3-yl)benzonitrile] here?
**A.** Its IC50 is < 100 nM.

**Q.** What about the IC50 (MNK2) of the same molecule?
**A.** The IC50 was < 100 nM.

**Q.** Which IC50 (MNK1) does the source give for `CN1CCN(C(=O)c2ccc(-c3ccc4ncc(-c5ccc(C#N)cc5)n4n3)cc2)CC1=O` [Example 69, 4-(6-(4-(4-methyl-3-oxopiperazine-1-carbonyl)phenyl)imidazo[1,2-b]pyridazin-3-yl)benzonitrile] here?
**A.** Its IC50 is < 100 nM.

**Q.** What about the IC50 (MNK2) of the same molecule?
**A.** Its IC50 is < 100 nM.

**Q.** For `CN1CCN(C2CCN(C(=O)c3ccc(-c4ccc5ncc(-c6ccc(C#N)cc6)n5n4)cc3)CC2)CC1` [Example 70, 4-(6-(4-(4-(4-methylpiperazin-1-yl)piperidine-1-carbonyl)phenyl)imidazo[1,2-b]pyridazin-3-yl)benzonitrile], which IC50 (MNK1) is on record?
**A.** The IC50 was < 100 nM.

**Q.** And the IC50 (MNK2)?
**A.** The IC50 was < 100 nM.

**Q.** `N#Cc1ccc(-c2cnc3ccc(-c4ccc(C(=O)N5CCC6(CCCCN6)CC5)cc4)nn23)cc1` [Example 71, 4-(6-(4-(1,9-diazaspiro[5.5]undecane-9-carbonyl)phenyl)imidazo[1,2-b]pyridazin-3-yl)benzonitrile] was tested. Which IC50 (MNK1) did it give?
**A.** Its IC50 is < 100 nM.

**Q.** And the IC50 (MNK2)?
**A.** Its IC50 is < 100 nM.

**Q.** With `CN1CCN(C(=O)c2ccc(-c3ccc4ncc(-c5ccc(C#N)cc5)n4n3)cc2Cl)CC1` [Example 72, 4-(6-(3-chloro-4-(4-methylpiperazine-1-carbonyl)phenyl)imidazo[1,2-b]pyridazin-3-yl)benzonitrile] as the molecule, how does the IC50 (MNK1) read?
**A.** Its IC50 is < 100 nM.

**Q.** What about the IC50 (MNK2) of the same molecule?
**A.** The IC50 was < 100 nM.

**Q.** What does the source list for `CN1CCN(C(=O)c2ccc(-c3ccc4ncc(-c5ccc(C#N)cc5)n4n3)cc2F)CC1` [Example 73, 4-(6-(3-fluoro-4-(4-methylpiperazine-1-carbonyl)phenyl)imidazo[1,2-b]pyridazin-3-yl)benzonitrile]?
**A.** IC50 (MNK1): < 100 nM; IC50 (MNK2): < 100 nM

**Q.** How did the IC50 (MNK1) turn out when `Cc1cc(-c2ccc3ncc(-c4ccc(C#N)cc4)n3n2)ccc1C(=O)N1CCN(C)CC1` [Example 74, 4-(6-(3-methyl-4-(4-methylpiperazine-1-carbonyl)phenyl)imidazo[1,2-b]pyridazin-3-yl)benzonitrile] was run?
**A.** Its IC50 is < 100 nM.

**Q.** What about the IC50 (MNK2) of the same molecule?
**A.** The IC50 was < 100 nM.

**Q.** Which IC50 (MNK1) does the source give for `COc1cc(C(=O)N2CCN(C)CC2)ccc1-c1ccc2ncc(-c3ccc(C#N)cc3)n2n1` [Example 78, 4-(6-(2-methoxy-4-(4-methylpiperazine-1-carbonyl)phenyl)imidazo[1,2-b]pyridazin-3-yl)benzonitrile] here?
**A.** The IC50 was < 100 nM.

**Q.** And the IC50 (MNK2)?
**A.** The IC50 was < 100 nM.

**Q.** Which IC50 (MNK1) does the source give for `CN1CCN(C(=O)c2ccc(-c3ccc4ncc(-c5ccc(C#N)cc5)n4n3)cc2[N+](=O)[O-])CC1` [Example 79, 4-(6-(4-(4-methylpiperazine-1-carbonyl)-3-nitrophenyl)imidazo[1,2-b]pyridazin-3-yl)benzonitrile] here?
**A.** Its IC50 is < 100 nM.

**Q.** What about the IC50 (MNK2) of the same molecule?
**A.** Its IC50 is < 100 nM.

**Q.** Which IC50 (MNK1) does the source give for `CC(=O)Nc1cc(-c2ccc3ncc(-c4ccc(C#N)cc4)n3n2)ccc1C(=O)N1CCC(N(C)C)CC1` [Example 81, N-(5-(3-(4-cyanophenyl)imidazo[1,2-b]pyridazin-6-yl)-2-(4-(dimethylamino)piperidine-1-carbonyl)phenyl)acetamide] here?
**A.** The IC50 was < 100 nM.

**Q.** And the IC50 (MNK2)?
**A.** The IC50 was < 100 nM.

**Q.** Which results are given for `CN1CCN(C(=O)c2ccc(-c3ccc4ncc(-c5ccc6c(c5)CC(=O)N6)n4n3)cc2)CC1` [Example 85, 5-(6-(4-(4-methylpiperazine-1-carbonyl)phenyl)imidazo[1,2-b]pyridazin-3-yl)indolin-2-one]?
**A.** IC50 (MNK1): < 100 nM; IC50 (MNK2): < 100 nM

**Q.** `CN1CCN(C(=O)c2ccc(-c3ccc4ncc(-c5ccc6[nH]ncc6c5)n4n3)cc2)CC1` [Example 86, (4-(3-(1H-indazol-5-yl)imidazo[1,2-b]pyridazin-6-yl)phenyl)(4-methylpiperazin-1-yl)methanone] was tested. Which IC50 (MNK1) did it give?
**A.** Its IC50 is < 100 nM.

**Q.** What about the IC50 (MNK2) of the same molecule?
**A.** Its IC50 is < 100 nM.

**Q.** Which IC50 (MNK1) does the source give for `CN1CCN(C(=O)c2ccc(-c3ccc4ncc(-c5ccc6[nH]cnc6c5)n4n3)cc2)CC1` [Example 87, (4-(3-(1H-benzo[d]imidazol-5-yl)imidazo[1,2-b]pyridazin-6-yl)phenyl)(4-methylpiperazin-1-yl)methanone] here?
**A.** Its IC50 is < 100 nM.

**Q.** What about the IC50 (MNK2) of the same molecule?
**A.** Its IC50 is < 100 nM.

**Q.** For `CN1CCN(C2CCN(C(=O)c3ccc(-c4ccc5ncc(-c6ccc7c(c6)CC(=O)N7)n5n4)cc3)CC2)CC1` [Example 89, 5-(6-(4-(4-(4-methylpiperazin-1-yl)piperidine-1-carbonyl)phenyl)imidazol[1,2-b]pyridazin-3-yl)indolin-2-one], which IC50 (MNK1) is on record?
**A.** Its IC50 is < 100 nM.

**Q.** What about the IC50 (MNK2) of the same molecule?
**A.** Its IC50 is < 100 nM.

**Q.** How did the IC50 (MNK1) turn out when `O=C1Cc2cc(-c3cnc4ccc(-c5ccc(C(=O)N6CCC(N7CCOCC7)CC6)cc5)nn34)ccc2N1` [Example 94, 5-(6-(4-(4-morpholinopiperidine-1-carbonyl)phenyl)imidazo[1,2-b]pyridazin-3-yl)indolin-2-one] was run?
**A.** Its IC50 is < 100 nM.

**Q.** And the IC50 (MNK2)?
**A.** Its IC50 is < 100 nM.

**Q.** `CN1CCN(C(=O)c2ccc(-c3ccc4ncc(-c5ccc(C#N)cc5)n4c3)cc2)CC1` [Example 95, 4-(6-(4-(4-Methylpiperazine-1-carbonyl)phenyl)imidazo[1,2-a]pyridin-3-yl)benzonitrile] was tested. Which IC50 (MNK1) did it give?
**A.** Its IC50 is < 100 nM.

**Q.** What about the IC50 (MNK2) of the same molecule?
**A.** Its IC50 is < 100 nM.

**Q.** `N#Cc1ccc(-c2cnc3ccc(-c4ccc(C(=O)N5CCCOCC5)cc4)cn23)cc1` [Example 97] was tested. Which IC50 (MNK1) did it give?
**A.** Its IC50 is < 100 nM.

**Q.** What about the IC50 (MNK2) of the same molecule?
**A.** Its IC50 is < 100 nM.

**Q.** How did the IC50 (MNK1) turn out when `CCN1CCN(C(=O)c2ccc(-c3ccc4ncc(-c5ccc(C#N)cc5)n4c3)cc2)CC1` [Example 98, 4-(6-(4-(4-ethylpiperazine-1-carbonyl)phenyl)imidazo[1,2-a]pyridin-3-yl)benzonitrile] was run?
**A.** The IC50 was < 100 nM.

**Q.** And the IC50 (MNK2)?
**A.** The IC50 was < 100 nM.

**Q.** How did the IC50 (MNK1) turn out when `CC(=O)NC1(C)CCN(C(=O)c2ccc(-c3ccc4ncc(-c5ccc(C#N)cc5)n4c3)cc2)CC1` [Example 99, N-(1-(4-(3-(4-cyanophenyl)imidazo[1,2-a]pyridin-6-yl)benzoyl)-4-methylpiperidin-4-yl)acetamide] was run?
**A.** The IC50 was < 100 nM.

**Q.** And the IC50 (MNK2)?
**A.** The IC50 was < 100 nM.

**Q.** Which results are given for `CCN(CC)C1(C)CCN(C(=O)c2ccc(-c3ccc4ncc(-c5ccc(C#N)cc5)n4c3)cc2)CC1` [Example 100, 4-(6-(4-(4-(diethylamino)-4-methylpiperidine-1-carbonyl)phenyl)imidazo[1,2-a]pyridin-3-yl)benzonitrile]?
**A.** IC50 (MNK1): < 100 nM; IC50 (MNK2): < 100 nM

**Q.** Which results are given for `CN(CC(=O)N1CCOCC1)C(=O)c1ccc(-c2ccc3ncc(-c4ccc(C#N)cc4)n3c2)cc1` [Example 101, 4-(3-(4-cyanophenyl)imidazo[1,2-a]pyridin-6-yl)-N-methyl-N-(2-morpholino-2-oxoethyl)benzamide]?
**A.** IC50 (MNK1): < 100 nM; IC50 (MNK2): < 100 nM

**Q.** Which IC50 (MNK1) does the source give for `N#Cc1ccc(-c2cnc3ccc(-c4ccc(C(=O)N5CCNC(=O)C5)cc4)cn23)cc1` [Example 102, 4-(6-(4-(3-oxopiperazine-1-carbonyl)phenyl)imidazo[1,2-a]pyridin-3-yl)benzonitrile] here?
**A.** The IC50 was < 100 nM.

**Q.** And the IC50 (MNK2)?
**A.** Its IC50 is < 100 nM.

**Q.** Which results are given for `CN1CCCN(C(=O)c2ccc(-c3ccc4ncc(-c5ccc(C#N)cc5)n4c3)cc2)CC1` [Example 103, 4-(6-(4-(4-methyl-1,4-diazepane-1-carbonyl)phenyl)imidazo[1,2-a]pyridin-3-yl)benzonitrile]?
**A.** IC50 (MNK1): < 100 nM; IC50 (MNK2): < 100 nM

**Q.** How did the IC50 (MNK1) turn out when `CN1CCC(C2CCN(C(=O)c3ccc(-c4ccc5ncc(-c6ccc(C#N)cc6)n5c4)cc3)CC2)CC1` [Example 105, 4-(6-(4-(1′-methyl-4,4′-bipiperidine-1-carbonyl)phenyl)imidazo[1,2-a]pyridin-3-yl)benzonitrile] was run?
**A.** The IC50 was < 100 nM.

**Q.** What about the IC50 (MNK2) of the same molecule?
**A.** The IC50 was < 100 nM.

**Q.** Which results are given for `CC1(O)CCN(C(=O)c2ccc(-c3ccc4ncc(-c5ccc(C#N)cc5)n4c3)cc2)CC1` [Example 106, 4-(6-(4-(4-hydroxy-4-methylpiperidine-1-carbonyl)phenyl)imidazo[1,2-a]pyridin-3-yl)benzonitrile]?
**A.** IC50 (MNK1): < 100 nM; IC50 (MNK2): < 100 nM

**Q.** Which results are given for `N#Cc1ccc(-c2cnc3ccc(-c4ccc(C(=O)N5CCCNCC5)cc4)cn23)cc1` [Example 107, 4-(6-(4-(1,4-diazepane-1-carbonyl)phenyl)imidazo[1,2-a]pyridin-3-yl)benzonitrile]?
**A.** IC50 (MNK1): < 100 nM; IC50 (MNK2): < 100 nM

**Q.** For `N#Cc1ccc(-c2cnc3ccc(-c4ccc(C(=O)N5CCC(N)CC5)cc4)cn23)cc1` [Example 109, 4-(6-(4-(4-aminopiperidine-1-carbonyl)phenyl)imidazo[1,2-a]pyridin-3-yl)benzonitrile], which IC50 (MNK1) is on record?
**A.** The IC50 was < 100 nM.

**Q.** And the IC50 (MNK2)?
**A.** Its IC50 is < 100 nM.

**Q.** Which results are given for `CS(=O)(=O)NC1CCN(C(=O)c2ccc(-c3ccc4ncc(-c5ccc(C#N)cc5)n4c3)cc2)CC1` [Example 111, N-(1-(4-(3-(4-cyanophenyl)imidazo[1,2-a]pyridin-6-yl)benzoyl)piperidin-4-yl)methanesulfonamide]?
**A.** IC50 (MNK1): < 100 nM; IC50 (MNK2): < 100 nM

**Q.** Which results are given for `CN(C)C1CCN(C(=O)c2ccc(-c3ccc4ncc(-c5ccc(C#N)cc5)n4c3)cc2)CC1` [Example 112, 4-(6-(4-(4-(dimethylamino)piperidine-1-carbonyl)phenyl)imidazo[1,2-a]pyridin-3-yl)benzonitrile]?
**A.** IC50 (MNK1): < 100 nM; IC50 (MNK2): < 100 nM

**Q.** Which results are given for `CCC1(N)CCN(C(=O)c2ccc(-c3ccc4ncc(-c5ccc(C#N)cc5)n4c3)cc2)CC1` [Example 113, 4-(6-(4-(4-amino-4-ethylpiperidine-1-carbonyl)phenyl)imidazo[1,2-a]pyridin-3-yl)benzonitrile]?
**A.** IC50 (MNK1): < 100 nM; IC50 (MNK2): < 100 nM

**Q.** How did the IC50 (MNK1) turn out when `N#Cc1ccc(-c2cnc3ccc(-c4ccc(C(=O)NCC(=O)N5CCOCC5)cc4)cn23)cc1` [Example 115, 4-(3-(4-cyanophenyl)imidazo[1,2-a]pyridin-6-yl)-N-(2-morpholino-2-oxoethyl)benzamide] was run?
**A.** Its IC50 is < 1000 nM.

**Q.** What about the IC50 (MNK2) of the same molecule?
**A.** Its IC50 is < 1000 nM.

**Q.** For `N#Cc1ccc(-c2cnc3ccc(-c4ccc(C(=O)NCCN5CCOCC5)cc4)cn23)cc1` [Example 116, 4-(3-(4-cyanophenyl)imidazo[1,2-a]pyridin-6-yl)-N-(2-morpholinoethyl)benzamide], which IC50 (MNK1) is on record?
**A.** The IC50 was < 1000 nM.

**Q.** And the IC50 (MNK2)?
**A.** Its IC50 is < 1000 nM.
